# Experiments:
# Assay in all cases: relative viability (nuclei count vs DMSO), 5 days (fraction); higher = more cells survive
# Zebularine + Olaparib = compound: O=c1ncccn1[C@@H]1O[C@H](CO)[C@@H](O)[C@H]1O [Zebularine] + O=C(c1cc(Cc2n[nH]c(=O)c3ccccc23)ccc1F)N1CCN(C(=O)C2CC2)CC1 [Olaparib] (partner 8 µM)
# Procedure, shortened: (§1)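 Relative viability equals treated-well nuclei counts divided by vehicle-well nuclei counts. Counts came from 4× images of lung cancer cell lines grown in 1536-well plates for 5 days after pin-tool dosing on the day after seeding. Dosing used one drug alone or a fixed anchor-drug dose plus five library-drug doses (not always all listed) in √10 steps, and values are medians of duplicate plates.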
# BI-D1870 + Vorinostat = compound: CC(C)CCN1c2nc(Nc3cc(F)c(O)c(F)c3)ncc2N(C)C(=O)C1C [BI-D1870] + O=C(CCCCCCC(=O)Nc1ccccc1)NO [Vorinostat] (partner 1 µM)
# Procedure, shortened: as §1
# Zebularine + Luminespib = compound: O=c1ncccn1[C@@H]1O[C@H](CO)[C@@H](O)[C@H]1O [Zebularine] + CCNC(=O)c1noc(-c2cc(C(C)C)c(O)cc2O)c1-c1ccc(CN2CCOCC2)cc1 [Luminespib] (partner 0.01 µM)
# Procedure, shortened: as §1
# Zebularine + Tozasertib = compound: O=c1ncccn1[C@@H]1O[C@H](CO)[C@@H](O)[C@H]1O [Zebularine] + Cc1cc(Nc2cc(N3CCN(C)CC3)nc(Sc3ccc(NC(=O)C4CC4)cc3)n2)n[nH]1 [Tozasertib] (partner 0.1 µM)
# Procedure, shortened: as §1
Cell Line,relative viability (Zebularine + Olaparib; first compound 1 µM),relative viability (Zebularine + Olaparib; first compound 3.162 µM),relative viability (Zebularine + Olaparib; first compound 10 µM),relative viability (Zebularine + Olaparib; first compound 31.62 µM),relative viability (Zebularine + Olaparib; first compound 100 µM),relative viability (BI-D1870 + Vorinostat; first compound 0.04 µM),relative viability (BI-D1870 + Vorinostat; first compound 0.1265 µM),relative viability (BI-D1870 + Vorinostat; first compound 0.4 µM),relative viability (BI-D1870 + Vorinostat; first compound 1.265 µM),relative viability (BI-D1870 + Vorinostat; first compound 4 µM),relative viability (Zebularine + Luminespib; first compound 1 µM),relative viability (Zebularine + Luminespib; first compound 31.62 µM),relative viability (Zebularine + Luminespib; first compound 100 µM),relative viability (Zebularine + Tozasertib; first compound 1 µM),relative viability (Zebularine + Tozasertib; first compound 3.162 µM),relative viability (Zebularine + Tozasertib; first compound 10 µM),relative viability (Zebularine + Tozasertib; first compound 31.62 µM),relative viability (Zebularine + Tozasertib; first compound 100 µM),relative viability (Zebularine + Luminespib; first compound 3.162 µM),relative viability (Zebularine + Luminespib; first compound 10 µM)
NCI-H727,0.728,0.886,0.732,0.68,0.775,1.32,1.22,0.986,1.19,1.08,0.382,1.01,0.272,0.639,0.645,0.602,0.623,0.386,–,–
NCI-H1355,0.625,0.426,0.375,0.28,0.272,0.74,0.613,0.657,0.731,0.608,0.93,0.452,0.29,0.56,0.516,0.484,0.328,0.34,0.654,0.595
HOP-62,0.169,0.35,0.257,0.163,0.16,0.737,0.669,0.602,0.703,0.464,0.991,0.296,0.178,0.503,0.396,0.212,0.154,0.167,0.906,0.263
NCI-H2085,0.782,0.709,0.568,0.482,0.399,0.828,0.733,0.709,0.781,0.509,0.625,0.423,0.277,0.9,0.804,0.688,0.609,0.529,0.436,0.339
SW 900,1.04,0.889,–,0.773,0.479,0.504,0.537,0.582,0.725,0.466,0.187,0.162,0.137,0.659,0.548,0.445,0.478,0.371,0.21,0.218

# Source: the supplement of paper PMC10307832
